On the set-up of series [1]: method as in previously reported (number not given). The conditions noted are these: oral exposure to a PCB mixture; ref previously reported (number not given); cited from earlier work.
The nature of series [2]: Fractionation of parent PCB28 and metabolites in serum, liver, adipose and kidney (liquid scintillation counting). Type of series: in vivo, Male Sprague–Dawley rats. As to conditions: for peak concentration of parent compound in serum: 12 min. As to the method:
Animals in the HD group were intratracheally (i.t.) administered 42 μg of a one-time single dose of [^14C]-PCB28 in 200 μL of vehicle, while animals in the LD group received 4.2 μg of [^14C]-PCB28 in 100 μL of vehicle. The i.t. route for dosing was selected due to the limited availability and extraordinary cost of the radiolabeled PCB28, and to avoid ^14C contamination of the inhalation exposure apparatus. All i.t. instillation was performed under light anesthesia (4% isoflurane via a precision vaporizer Fortec, Cyprane, Keighley, UK). Rats recovered from the anesthesia within 2 min while held within a cylindrical glass chamber (2 L), equipped with drainage ports to facilitate urine collection and a metallic screen to segregate urine from feces (as illustrated in Figure S1). Air was drawn from the chamber at 6.0 L/min through a cartridge containing XAD-2 polymeric resin (Amberlite, Millipore Sigma, Burlington, MA) to capture any exhaled [^14C]-PCB28. For the longer time points (720 and 1440 min), individual rats were placed in metabolic cages following a similar protocol for excreta and exhaled breath collection. After exposure, the inner walls of the chamber were rinsed separately with water, acetone, and hexane (25 – 45 mL) and wiped to measure radioactivity. Rat fur was also wiped and analyzed for radioactivity. The rats exposed to the HD were euthanized using isoflurane and exsanguination via cardiac puncture at 12, 25, 50, 100, 200, 400, 720, and 1440 min postexposure (n = 1 per time point except n = 2 for 200 min). Animals exposed to the LD were similarly necropsied at time points of 2, 12, 50, 200, and 720 min postexposure (n = 2). Euthanasia was consistently performed during the light cycle, except in the case of the 720 min time point, wherein euthanasia occurred outside the light cycle.
Extractions of parent PCB28 and its hydroxylated, methyl sulfone, and conjugated metabolites in serum, liver, adipose, and kidney samples were conducted using our previous protocol. Individual extractable metabolites were separated using a series of liquid–liquid extractions, employing a graded array of solvents with increasing polarity to facilitate the partitioning of the analytes according to their inherent lipophilic characteristics (Figure S2). Subsequently, individual fractions were classified into respective categories, including the native PCB moiety, hydroxylated PCB (OH-PCB), methyl sulfonyl-PCB (MeSO2-PCB), conjugated metabolites, and unextractable components. Analytical recoveries were quantified for each extraction and separation step. Tissue samples (200–400 mg wet weight) were prepared for analysis in a two-step homogenization process using 2 mL of hexane/acetone solvent (50:50, vol/vol). The resultant solution was centrifuged, and then the pellet underwent two successive extractions with 1.5 mL of dichloromethane (DCM), chloroform/methanol (50:50 vol/vol), methanol/water (50:50 vol/vol), and water, respectively. […] The residual hydrophobic phase was quantified as native PCB28. The quantification of unlabeled PCB28, OH-PCBs (as MeO-PCB derivatives), and MeSO2–PCBs in standards spiked samples was performed on a gas chromatograph (Agilent 6890N) equipped with a ^63Ni μ-ECD detector and SLB-5MS capillary column (60 m × 0.25 mm I.D., 0.25 μm film thickness; Supelco, St Louis, MO). […]

On to `Clc1ccc(-c2ccc(Cl)cc2Cl)cc1` [PCB28, 2,4,4′-trichlorobiphenyl], for which the “time of peak adipose concentration” value in series [1] is listed as 24 h. Also, the “increase of parent PCB28 concentration over the entire study time course” value in series [2] (adipose tissue, high dose) turned out to be 9 fold; in series [2] (adipose tissue, low dose) it was 36 fold. Moreover, the “increase of parent PCB28 concentration between 200 and 720 min” value in series [2] (adipose tissue, low dose) was 3 fold. Besides, the results for the “peak concentration of parent compound in serum” value in series [2] (high dose) and in series [2] (low dose) were 47 dpm/mg and 7.6 dpm/mg, respectively.

Source of the values: article PMC12593371, “Whole-Body Disposition and Metabolism of [^14C]-2,4,4′-Trichlorobiphenyl (PCB28) Following Lung Administration in Rats” (Environmental Science & Technology, 2025).
